The values below are quoted from earlier work in patent US20140045806A1 (priority 2012, published 2014).

The subject of the series is vaginal nerve fibers. The conditions noted are these: Pessina, Hoyt et al. 2006; cited from earlier work.

Take `CC(=O)[C@H]1CC[C@H]2[C@@H]3CCC4=CC(=O)CC[C@]4(C)[C@H]3CC[C@]12C` [progesterone]: the “Number and size of the nerve terminals in the lamina propria” value was “no effect”.

With `C[C@]12CC[C@H]3[C@@H](CCC4=CC(=O)CC[C@@]43C)[C@@H]1CC[C@@H]2O` [testosterone], the “Number and size of the nerve terminals in the lamina propria” value was “increases the number and size of the nerve terminals”.
